Usually viscosity stands for the resistance of a fluid to flow. The mass density is the mass of a sample divided by its volume.

This is an account of results in the NIST ThermoML archive (doi:10.1016/j.jct.2015.04.027).

The structures appear in SMILES notation. ± gives the expanded uncertainty stated by the source.

The conditions of data set [1]: 100 kPa, Liquid; for viscosity: Falling or rolling sphere viscometry; for mass density: Vibrating tube method.
Data set [2] in a line: xn = mol fraction of the nth substance listed. The note with it: 100 kPa, Liquid, x2 = 0; for viscosity: Falling or rolling sphere viscometry; for mass density: Vibrating tube method.

For the compound `CN(C)C(=[NH2+])N(C)C.c1c[n-]cn1` [1,1,3,3-tetramethylguanidinium imidazol-1-ide], the viscosity in data set [1] (293.15 K) stood at 8.952 ± 0.2 mPa·s; in data set [1] (298.15 K), 7.287 ± 0.16 mPa·s; in data set [1] (303.15 K) it was 6.044 ± 0.13 mPa·s; in data set [1] (308.15 K) it was 5.097 ± 0.11 mPa·s; in data set [1] (313.15 K), 4.358 ± 0.096 mPa·s. For the same compound, the mass density in data set [1] (293.15 K) is on record as 997.25 ± 0.25 kg/m3; in data set [1] (298.15 K), 992.8 ± 0.25 kg/m3; in data set [1] (303.15 K), 988.35 ± 0.25 kg/m3; in data set [1] (308.15 K), 983.9 ± 0.25 kg/m3; in data set [1] (313.15 K) it was 979.46 ± 0.25 kg/m3.
For the compound `CCCCO` [butan-1-ol], the viscosity in data set [1] (293.15 K) came to 2.918 ± 0.062 mPa·s; in data set [1] (298.15 K) it was 2.566 ± 0.055 mPa·s; in data set [1] (303.15 K), 2.272 ± 0.049 mPa·s; in data set [1] (308.15 K), 2.024 ± 0.043 mPa·s; in data set [1] (313.15 K), 1.81 ± 0.039 mPa·s. Also, the mass density in data set [1] (293.15 K) was determined as 809.72 ± 0.16 kg/m3; in data set [1] (298.15 K) it was 805.92 ± 0.16 kg/m3; in data set [1] (303.15 K), 802.08 ± 0.16 kg/m3; in data set [1] (308.15 K) it was 798.21 ± 0.16 kg/m3; in data set [1] (313.15 K) it was 794.3 ± 0.17 kg/m3.
As for `CCCCO` [butan-1-ol] + CN(C)C(=[NH2+])N(C)C.c1c[n-]cn1, the viscosity in data set [2] (293.15 K) was 2.918 ± 0.062 mPa·s; in data set [2] (298.15 K), 2.566 ± 0.055 mPa·s; in data set [2] (303.15 K), 2.272 ± 0.049 mPa·s; in data set [2] (308.15 K), 2.024 ± 0.043 mPa·s; in data set [2] (313.15 K) it was 1.81 ± 0.039 mPa·s. For the same compound, the mass density in data set [2] (293.15 K) was determined as 809.72 ± 0.16 kg/m3; in data set [2] (298.15 K) it was 805.92 ± 0.16 kg/m3; in data set [2] (303.15 K), 802.08 ± 0.16 kg/m3; in data set [2] (308.15 K), 798.21 ± 0.16 kg/m3; in data set [2] (313.15 K) it was 794.3 ± 0.17 kg/m3.
As to `CCO` [ethanol], the viscosity is on record as 1.186 ± 0.025 mPa·s in data set [1] (293.15 K); 1.083 ± 0.023 mPa·s in data set [1] (298.15 K); 0.987 ± 0.021 mPa·s in data set [1] (303.15 K); 0.903 ± 0.019 mPa·s in data set [1] (308.15 K); 0.829 ± 0.018 mPa·s in data set [1] (313.15 K). The mass density in data set [1] (293.15 K) worked out at 789.51 ± 0.17 kg/m3; in data set [1] (298.15 K), 785.4 ± 0.17 kg/m3; in data set [1] (303.15 K), 780.83 ± 0.17 kg/m3; in data set [1] (308.15 K), 776.48 ± 0.17 kg/m3; in data set [1] (313.15 K), 772.15 ± 0.17 kg/m3.
As to `CCO` [ethanol] + CN(C)C(=[NH2+])N(C)C.c1c[n-]cn1, the viscosity stood at 1.186 ± 0.025 mPa·s in data set [2] (293.15 K); 1.083 ± 0.023 mPa·s in data set [2] (298.15 K); 0.987 ± 0.021 mPa·s in data set [2] (303.15 K); 0.903 ± 0.019 mPa·s in data set [2] (308.15 K); 0.829 ± 0.018 mPa·s in data set [2] (313.15 K). Moreover, the mass density in data set [2] (293.15 K) is 789.51 ± 0.17 kg/m3; in data set [2] (298.15 K), 785.4 ± 0.17 kg/m3; in data set [2] (303.15 K), 780.83 ± 0.17 kg/m3; in data set [2] (308.15 K), 776.48 ± 0.17 kg/m3; in data set [2] (313.15 K), 772.15 ± 0.17 kg/m3.
Take `CO` [methanol]: the viscosity in data set [1] (293.15 K) was found to be 0.597 ± 0.013 mPa·s; in data set [1] (298.15 K) it was 0.559 ± 0.012 mPa·s; in data set [1] (303.15 K), 0.518 ± 0.011 mPa·s; in data set [1] (308.15 K), 0.493 ± 0.011 mPa·s; in data set [1] (313.15 K), 0.466 ± 0.01 mPa·s. The mass density in data set [1] (293.15 K) is recorded as 791.35 ± 0.17 kg/m3; in data set [1] (298.15 K), 786.67 ± 0.18 kg/m3; in data set [1] (303.15 K) it was 781.94 ± 0.18 kg/m3; in data set [1] (308.15 K), 777.2 ± 0.18 kg/m3; in data set [1] (313.15 K), 772.42 ± 0.18 kg/m3.
In the case of `CO` [methanol] + CN(C)C(=[NH2+])N(C)C.c1c[n-]cn1, the viscosity in data set [2] (293.15 K) turned out to be 0.597 ± 0.013 mPa·s; in data set [2] (298.15 K), 0.559 ± 0.012 mPa·s; in data set [2] (303.15 K), 0.518 ± 0.011 mPa·s; in data set [2] (308.15 K), 0.493 ± 0.011 mPa·s; in data set [2] (313.15 K), 0.466 ± 0.01 mPa·s. Moreover, the mass density in data set [2] (293.15 K) stood at 791.35 ± 0.17 kg/m3; in data set [2] (298.15 K), 786.67 ± 0.18 kg/m3; in data set [2] (303.15 K), 781.94 ± 0.18 kg/m3; in data set [2] (308.15 K), 777.2 ± 0.18 kg/m3; in data set [2] (313.15 K), 772.42 ± 0.18 kg/m3.
Consider `CCCO` [propan-1-ol], for which the viscosity was determined as 2.217 ± 0.047 mPa·s in data set [1] (293.15 K); 1.955 ± 0.042 mPa·s in data set [1] (298.15 K); 1.736 ± 0.037 mPa·s in data set [1] (303.15 K); 1.55 ± 0.033 mPa·s in data set [1] (308.15 K); 1.389 ± 0.03 mPa·s in data set [1] (313.15 K). The mass density in data set [1] (293.15 K) came out at 803.75 ± 0.16 kg/m3; in data set [1] (298.15 K) it was 799.71 ± 0.17 kg/m3; in data set [1] (303.15 K) it was 795.65 ± 0.17 kg/m3; in data set [1] (308.15 K), 791.56 ± 0.17 kg/m3; in data set [1] (313.15 K), 787.42 ± 0.17 kg/m3.
Consider `CCCO` [propan-1-ol] + CN(C)C(=[NH2+])N(C)C.c1c[n-]cn1, for which the viscosity in data set [2] (293.15 K) stood at 2.217 ± 0.047 mPa·s; in data set [2] (298.15 K), 1.955 ± 0.042 mPa·s; in data set [2] (303.15 K) it was 1.736 ± 0.037 mPa·s; in data set [2] (308.15 K), 1.55 ± 0.033 mPa·s; in data set [2] (313.15 K) it was 1.389 ± 0.03 mPa·s. In addition, the mass density in data set [2] (293.15 K) stood at 803.75 ± 0.16 kg/m3; in data set [2] (298.15 K), 799.71 ± 0.17 kg/m3; in data set [2] (303.15 K), 795.65 ± 0.17 kg/m3; in data set [2] (308.15 K), 791.56 ± 0.17 kg/m3; in data set [2] (313.15 K), 787.42 ± 0.17 kg/m3.
